The record followed here is US7862815B2, “Methods for inhibiting angiogenesis with inhibitors of proadrenomedullin N-terminal 20 peptide (PAMP)” (The United States of America as represented by the …, priority 2002, dated 2011).

One experiment concerns athymic nude mice. The experiment is described as follows: DIVAA with angioreactors, Example 2 (peptides in matrigel). Type of experiment: in vivo. Particulars: for concentration range at which angiogenesis begins: equimolar comparison, FIG. 4G. As to the method: Analysis and quantitation of angiogenesis was done using DIVAA as previously described (Martinez et al., J. Natl. Cancer Inst., 21; 94(16):1226-37, 2002; Guedez et al., Am. J. Pathol. 162, 1431-1439, 2003). Briefly, 10 mm long surgical-grade silicone tubes with only one end open (angioreactors) were filled with 20 μl of matrigel alone or mixed with AM, bFGF, VEGF, PAMP, and/or PAMP(12-20) at the indicated concentrations. Human lung cancer cell lines (see below) were also premixed with matrigel alone or in combination with PAMP(12-20) at 10,000 cells per angioreactor. After the matrigel solidified, the angioreactors were implanted into the dorsal flanks of anesthetized athymic nude mice (NCI colony). After eleven days, the mice were injected intravenously with 25 mg/ml FITC-dextran (100 μl/mouse, Sigma) 20 minutes before removing the angioreactors. Photographs of the implants were taken for visual examination of angiogenic response. Quantitation of neovascularization in the angioreactors was determined as the amount of fluorescence trapped in the implants and was measured in a HP Spectrophotometer (Perkin Elmer).
To further characterize this observation, an […] assay was employed that allows for more precise quantitation of angiogenic properties: the directed […] angiogenesis assay or DIVAA (Martinez et al., J. Natl. Cancer Inst., 21; 94(16): 1226-37, 2002; Guédez et al., Am. J. Pathol. 162, 1431-1439, 2003). The assay involves implanting small silicone capsules carrying the test substances under the skin of nude mice. After eleven days, the mice are injected with a specific amount of FITC-dextran, and the volume of blood circulating through the implant is quantified by measuring the fluorescence in the capsule. In addition, the new blood vessels growing into the silicone tube can be seen directly by transparency (FIG. 4A-F). […] The extent of the angiogenic response can be seen clearly when this response is compared with the negative control (FIG. 4A). The angiogenic response elicited by PAMP was dose-dependent (FIG. 4C-G). When compared to AM and VEGF responses at equimolar concentrations, a clear difference was observed.

The subject of experiment [1] is human microvascular endothelial cells. The experiment is described as follows: Proliferation assay (MTT). Type of experiment: cell-based. Particulars: three days; for endothelial cell proliferation over the control: 10^−8 M, serum-free medium, p<0.001. As to the method: The same microvascular endothelial cells were seeded in 96-well plates at a density of 2.0×10^5 cells per well in serum-free medium containing different concentrations of the test peptides. After three days in culture, the number of viable cells per well was estimated by the MTT assay as reported (Iwai et al., Lung Cancer 23, 209-222, 1999). Results are represented as percentage growth over the untreated control.

Experiment [2] deals with human endothelial cells. The experiment is described as follows: Migration assay (ChemoTx chamber). Type of experiment: cell-based. The conditions noted are these: for increase in migration: 10^−11 M, four hour incubation, p<0.001; for concentration of peak of migration stimulation: lower and higher concentrations less efficient. The method, then:
Cell motility was measured as described (Martinez et al., J. Natl. Cancer Inst., 21; 94(16):1226-37, 2002). Test peptides were placed at various concentrations at the bottom of a ChemoTx chamber (NeuroProbe Inc.). The intermediate membrane was coated with 10 μg/ml fibronectin, and in the upper chamber 5.0×10^5 human endothelial cells were added. After a four hour incubation at 37° C., the membrane was fixed and stained (Protocol Hema3, Biochemical Sciences Inc.). The cells trapped in the porous membrane were photographed through a 25× microscope objective and the number of cells per photographic field was counted.

Experiment [3] has as its system human endothelial cells. The experiment is described as follows: Real-time PCR quantification of gene expression. Particulars: for expression of the AM/PAMP gene: addition of 10 nM peptide. Type of experiment: cell-based. The method, then:
Human endothelial cells were cultured in T-75 flasks at a density of 2.5×10^6 cells/well. After the cells were attached to the bottom of the plate, they were treated with 10 nM PAMP in serum-free medium for 24 hours. At the end of this exposure, the cells were washed once with PBS, scraped from the plate and their total RNA was extracted using the RNeasy Mini Kit from Qiagen and reverse transcribed using the SuperScript First-Strand Synthesis system (Invitrogen). Quantification of gene expression was performed by real-time PCR as described (Martinez et al., J. Endocrinol. 176, 95-102, 2003). The PCR reaction was run in an Opticon cycler (MJ Research) using Sybr Green PCR master mix (Applied Biosystems). Thermocycling was performed in a final volume of 25 μl containing 2 μl of cDNA (1:10 dilution) and 400 nM of primers (see below). All targets were amplified in triplicates in the same run as the house-keeping gene, using the following cycle scheme: after initial denaturation of the samples at 95° C. for 2 minutes, 46 cycles of 95° C. for 30 seconds, 60° C. for 30 seconds, and 72° C. for 30 seconds were performed.
Fluorescence was measured in every cycle and mRNA levels were normalized by the 18S RNA values in all samples. A melting curve was run after PCR by increasing temperature from 50° C. to 96° C. (0.5° C. increments). A single peak was obtained for all amplicons, thus confirming the specificity of the reaction.
On the technique in general: In qPCR the cycle at which signal appears reflects the starting amount.

Where only a bound is given, the exact number is not on record here.

As to Adrenomedullin [AM], the “concentration range at which angiogenesis begins” value (“concentration range” for short) in the experiment with athymic nude mice is listed as “nanomolar concentrations”. Also, the “endothelial cell proliferation over the control” value in experiment [1] is “significantly increase proliferation”. The “effect on cell migration” value with human endothelial cells [2] (on the concentration range tested) is “did not modify cell migration significantly”. The “expression of the AM/PAMP gene” value in the experiment on human endothelial cells [3] is recorded as “indistinguishable from the untreated controls”.
For the substance “proadrenomedullin N-terminal 20 peptide (ARLDVASEFRKKWNKWALSR; listed as Homo sapiens) [PAMP, 20 amino-acid molecule originating from the post-translational processing of pre-proadrenomedullin; synthetic human, purchased from Bachem]”, in the experiment with athymic nude mice (FIG. 4C-G), the “dose dependence of angiogenic response” value is listed as “dose-dependent”. The “concentration range” value with athymic nude mice is “femtomolar range”. The “concentrations eliciting an angiogenic response” value in the experiment with athymic nude mice (implants 11 days under the skin of nude mice) is recorded as at least 1 femtomols/L. Further, the endothelial cell growth entry in experiment [1] (at the concentrations tested) is “did not significantly modify cell growth”. In the experiment with human endothelial cells [2], the increase in migration result is recorded as “four-fold” and the “concentration of peak of migration stimulation” value is on record as 10^−11 M. For the same substance, in the experiment on human endothelial cells [3] (10 nM PAMP, 24 hours), the “expression of PDGF A mRNA” value is recorded as “no significant modification”, the “expression of PDGF B mRNA” value was “no significant modification”, the “expression of PDGF C mRNA” value is recorded as “elevating the expression” and the “expression of VEGF mRNA” value is recorded as “elevating the expression”. The “expression of bFGF mRNA” value in the experiment on human endothelial cells [3] (10 nM PAMP, 24 hours) is “elevating the expression”. Also, in the experiment with human endothelial cells [3] (10 nM PAMP, 24 hours, normalized by 18S RNA), the “expression of AM gene mRNA” value is listed as “about 50 % over basal levels”.
Take “vascular endothelial growth factor [VEGF]”: the “concentration range” value in the experiment with athymic nude mice is recorded as “nanomolar concentrations”. Moreover, the “endothelial cell proliferation over the control” value in experiment [1] was “significantly increase proliferation”. In addition, in the experiment on human endothelial cells [2], the increase in migration entry is recorded as “four-fold” and the “concentration of peak of migration stimulation” value was 10^−11 M. The “cell migration at other concentrations” value with human endothelial cells [2] (concentrations lower than 10^−11 M) is “also induced a significant increase in cell migration”. In the experiment with human endothelial cells [3], the “expression of the AM/PAMP gene” value is recorded as “indistinguishable from the untreated controls”.
